For this assay, the target named is T1, BRM (Homo sapiens, UniProt P51531).
T1 construct: In-Cell Western Screen of BRM Degradation in SW1573 Cells; endogenous in cells; host or cells: SW1573
As to the kind of experiment: In-cell Western screen of BRM degradation in SW1573 cells (Dmax and DC50). It is filed as cell-based. Particulars: for DC50: read-out: BRM DC50; for Dmax: SW1573, % degraded, when tested at the top concentration of between 0.3 and 10 μM, read-out: BRM Dmax (%). The gist of the method:
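After adhering overnight, cells received compound for 18-20 hours. They were then washed in cold DPBS, fixed with 4% PFA for 20 min and permeabilized for 30 min. Blocking and fluorescent secondary staining followed before imaging.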

The text below walks through data of patent publication US12539292B2, “BRM targeting compounds and associated methods of use” (Arvinas Operations, Inc., priority 2018, dated 2026).

The DC50 is the concentration giving 50% degradation. What is called Dmax is the greatest extent of degradation seen.

The structures appear in SMILES notation. Like-named read-outs stand apart in the source and are kept apart here. Bounds are passed on as bounds.

T1 sequence (P51531 whole entry): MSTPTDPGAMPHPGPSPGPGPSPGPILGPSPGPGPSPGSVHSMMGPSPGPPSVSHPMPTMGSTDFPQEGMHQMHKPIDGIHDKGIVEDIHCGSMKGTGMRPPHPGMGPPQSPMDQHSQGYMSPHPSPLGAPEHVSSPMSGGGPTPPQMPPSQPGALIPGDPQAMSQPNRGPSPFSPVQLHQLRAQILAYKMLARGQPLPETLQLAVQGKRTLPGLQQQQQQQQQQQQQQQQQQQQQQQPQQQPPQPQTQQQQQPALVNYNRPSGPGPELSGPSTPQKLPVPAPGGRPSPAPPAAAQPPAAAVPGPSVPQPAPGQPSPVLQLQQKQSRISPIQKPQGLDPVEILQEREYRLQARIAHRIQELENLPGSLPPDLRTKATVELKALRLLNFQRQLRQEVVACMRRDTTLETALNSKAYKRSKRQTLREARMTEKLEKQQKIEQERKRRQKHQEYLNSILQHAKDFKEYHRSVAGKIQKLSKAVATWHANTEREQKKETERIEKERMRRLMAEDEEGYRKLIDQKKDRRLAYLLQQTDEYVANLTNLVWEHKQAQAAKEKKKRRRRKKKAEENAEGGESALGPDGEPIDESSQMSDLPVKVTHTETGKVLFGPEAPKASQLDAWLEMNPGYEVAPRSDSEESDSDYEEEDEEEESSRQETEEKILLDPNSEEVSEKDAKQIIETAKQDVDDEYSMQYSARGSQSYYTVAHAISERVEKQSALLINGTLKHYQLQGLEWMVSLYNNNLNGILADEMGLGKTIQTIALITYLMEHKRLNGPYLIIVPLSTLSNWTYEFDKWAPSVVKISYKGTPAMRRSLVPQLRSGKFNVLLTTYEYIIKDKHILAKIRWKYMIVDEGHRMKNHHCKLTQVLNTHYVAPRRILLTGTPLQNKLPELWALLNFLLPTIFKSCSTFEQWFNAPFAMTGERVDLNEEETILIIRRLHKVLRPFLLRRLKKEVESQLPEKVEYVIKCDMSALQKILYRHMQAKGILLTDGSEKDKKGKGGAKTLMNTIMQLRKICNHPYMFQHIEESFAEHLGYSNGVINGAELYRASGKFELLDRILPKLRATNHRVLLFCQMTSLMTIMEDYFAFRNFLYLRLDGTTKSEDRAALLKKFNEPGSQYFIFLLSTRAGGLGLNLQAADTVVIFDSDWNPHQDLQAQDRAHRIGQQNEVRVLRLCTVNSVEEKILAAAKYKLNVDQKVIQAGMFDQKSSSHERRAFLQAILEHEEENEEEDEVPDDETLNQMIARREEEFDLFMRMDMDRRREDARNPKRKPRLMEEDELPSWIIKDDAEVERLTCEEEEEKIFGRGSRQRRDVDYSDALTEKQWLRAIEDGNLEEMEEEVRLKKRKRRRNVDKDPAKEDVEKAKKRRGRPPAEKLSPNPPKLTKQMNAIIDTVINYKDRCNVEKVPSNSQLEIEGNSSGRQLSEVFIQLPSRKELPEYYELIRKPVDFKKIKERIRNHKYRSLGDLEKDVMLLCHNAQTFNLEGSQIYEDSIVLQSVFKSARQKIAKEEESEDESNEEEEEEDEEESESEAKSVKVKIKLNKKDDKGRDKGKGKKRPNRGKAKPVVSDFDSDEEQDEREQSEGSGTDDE

Consider `CC(C)[C@H](C(=O)N1C[C@H](O)C[C@H]1C(=O)N[C@@H](C)c1ccc(C2CC2(F)F)cc1)c1cc(OCCN2CCC(O[C@H]3C[C@H](Oc4cc(N5C6CCC5CN(c5cc(-c7ccccc7O)nnc5N)C6)ccn4)C3)CC2)no1` (stereo partly drawn) [compound 438, (2S,4R)-1-((2S)-2-(3-(2-(4-((1r,3S)-3-((4-(3-(3-amino-6-(2-hydroxyphenyl)pyridazin-4-yl)-3,8-diazabicyclo[3.2.1]octan-8-yl)pyridin-2-yl)oxy)cyclobutoxy)piperidin-1-yl)ethoxy)isoxazol-5-yl)-3-methylbutanoyl)-N-((1S)-1-(4-(2,2-difluorocyclopropyl)phenyl)ethyl)-4-hydroxypyrrolidine-2-carboxamide], for which the DC50 (degradation of BRM) is greater than 30 nM.
`CC(C)[C@@H](C(=O)N1C[C@H](O)C[C@H]1C(=O)N[C@@H](C)c1ccc(C2CC2(F)F)cc1)c1cc(OCCN2CCC(O[C@H]3C[C@H](Oc4cc(N5C6CCC5CN(c5cc(-c7ccccc7O)nnc5N)C6)ccn4)C3)CC2)no1` (stereo partly drawn) [compound 439, (2S,4R)-1-((2R)-2-(3-(2-(4-((1r,3R)-3-((4-(3-(3-amino-6-(2-hydroxyphenyl)pyridazin-4-yl)-3,8-diazabicyclo[3.2.1]octan-8-yl)pyridin-2-yl)oxy)cyclobutoxy)piperidin-1-yl)ethoxy)isoxazol-5-yl)-3-methylbutanoyl)-N-((1S)-1-(4-(2,2-difluorocyclopropyl)phenyl)ethyl)-4-hydroxypyrrolidine-2-carboxamide]: the DC50 (degradation of BRM) is greater than 30 nM.
As for `Cc1ncsc1-c1cnc([C@@H](C)NC(=O)[C@@H]2C[C@@H](O)CN2C(=O)[C@H](c2cc(OCCN3CCC(O[C@H]4C[C@H](Oc5cc(N6C7CCC6CN(c6cc(-c8ccccc8O)nnc6N)C7)ccn5)C4)CC3)no2)C(C)C)cn1` [compound 440, (2S,4R)-1-((2S)-2-(3-(2-(4-((1r,3S)-3-((4-(3-(3-amino-6-(2-hydroxyphenyl)pyridazin-4-yl)-3,8-diazabicyclo[3.2.1]octan-8-yl)pyridin-2-yl)oxy)cyclobutoxy)piperidin-1-yl)ethoxy)isoxazol-5-yl)-3-methylbutanoyl)-4-hydroxy-N-((R)-1-(5-(4-methylthiazol-5-yl)pyrazin-2-yl)ethyl)pyrrolidine-2-carboxamide], the DC50 (degradation of BRM) was greater than 30 nM.
For `Cc1ncsc1-c1cnc([C@@H](C)NC(=O)[C@@H]2C[C@@H](O)CN2C(=O)[C@@H](c2cc(OCCN3CCC(O[C@H]4C[C@H](Oc5cc(N6C7CCC6CN(c6cc(-c8ccccc8O)nnc6N)C7)ccn5)C4)CC3)no2)C(C)C)cn1` [compound 441, (2S,4R)-1-((2R)-2-(3-(2-(4-((1r,3R)-3-((4-(3-(3-amino-6-(2-hydroxyphenyl)pyridazin-4-yl)-3,8-diazabicyclo[3.2.1]octan-8-yl)pyridin-2-yl)oxy)cyclobutoxy)piperidin-1-yl)ethoxy)isoxazol-5-yl)-3-methylbutanoyl)-4-hydroxy-N-((R)-1-(5-(4-methylthiazol-5-yl)pyrazin-2-yl)ethyl)pyrrolidine-2-carboxamide], the Dmax is greater than 75%. Moreover, the DC50 (degradation of BRM) was in the range of 2.5 to 10 nM.
Consider `Cc1ncsc1-c1ccc([C@@H](C)NC(=O)[C@@H]2C[C@@H](O)CN2C(=O)[C@H](c2cc(OCCN3CCC(O[C@H]4C[C@H](Oc5cc(N6C7CCC6CN(c6cc(-c8ccccc8O)nnc6N)C7)ccn5)C4)CC3)no2)C(C)C)nn1` [compound 442, (2S,4R)-1-((2S)-2-(3-(2-(4-((1r,3S)-3-((4-(3-(3-amino-6-(2-hydroxyphenyl)pyridazin-4-yl)-3,8-diazabicyclo[3.2.1]octan-8-yl)pyridin-2-yl)oxy)cyclobutoxy)piperidin-1-yl)ethoxy)isoxazol-5-yl)-3-methylbutanoyl)-4-hydroxy-N-((R)-1-(6-(4-methylthiazol-5-yl)pyridazin-3-yl)ethyl)pyrrolidine-2-carboxamide], for which the DC50 (degradation of BRM) is greater than 30 nM.
As for `Cc1ncsc1-c1ccc([C@@H](C)NC(=O)[C@@H]2C[C@@H](O)CN2C(=O)[C@@H](c2cc(OCCN3CCC(O[C@H]4C[C@H](Oc5cc(N6C7CCC6CN(c6cc(-c8ccccc8O)nnc6N)C7)ccn5)C4)CC3)no2)C(C)C)nn1` [compound 443, (2S,4R)-1-((2R)-2-(3-(2-(4-((1r,3R)-3-((4-(3-(3-amino-6-(2-hydroxyphenyl)pyridazin-4-yl)-3,8-diazabicyclo[3.2.1]octan-8-yl)pyridin-2-yl)oxy)cyclobutoxy)piperidin-1-yl)ethoxy)isoxazol-5-yl)-3-methylbutanoyl)-4-hydroxy-N-((R)-1-(6-(4-methylthiazol-5-yl)pyridazin-3-yl)ethyl)pyrrolidine-2-carboxamide], the DC50 (degradation of BRM) is greater than 30 nM.
On to `Cc1ncsc1-c1ccc([C@H](C)NC(=O)[C@@H]2C[C@@H](O)CN2C(=O)[C@H](c2cc(OCCC3CCN([C@H]4C[C@H](CN5CCOC6(CCN(c7cc(-c8ccccc8O)nnc7N)CC6)C5)C4)CC3)no2)C(C)C)cc1` [compound 444, (2S,4R)-1-((S)-2-(3-(2-(1-((1r,3S)-3-((9-(3-amino-6-(2-hydroxyphenyl)pyridazin-4-yl)-1-oxa-4,9-diazaspiro[5.5]undecan-4-yl)methyl)cyclobutyl)piperidin-4-yl)ethoxy)isoxazol-5-yl)-3-methylbutanoyl)-4-hydroxy-N-((S)-1-(4-(4-methylthiazol-5-yl)phenyl)ethyl)pyrrolidine-2-carboxamide], for which the greatest degradation seen (Dmax) is greater than 75%. Further, the DC50 (degradation of BRM) was less than 2.5 nM.
The matching figures for `Cc1ncsc1-c1ccc([C@H](C)NC(=O)[C@@H]2C[C@@H](O)CN2C(=O)[C@@H](c2cc(OCCC3CCN([C@H]4C[C@H](CN5CCOC6(CCN(c7cc(-c8ccccc8O)nnc7N)CC6)C5)C4)CC3)no2)C(C)C)cc1` [compound 445, (2S,4R)-1-((R)-2-(3-(2-(1-((1r,3R)-3-((9-(3-amino-6-(2-hydroxyphenyl)pyridazin-4-yl)-1-oxa-4,9-diazaspiro[5.5]undecan-4-yl)methyl)cyclobutyl)piperidin-4-yl)ethoxy)isoxazol-5-yl)-3-methylbutanoyl)-4-hydroxy-N-((S)-1-(4-(4-methylthiazol-5-yl)phenyl)ethyl)pyrrolidine-2-carboxamide]: greater than 75% and less than 2.5 nM.
Consider `Cc1ncsc1-c1ccc([C@H](C)NC(=O)[C@@H]2C[C@@H](O)CN2C(=O)C(c2cc(OCCN3[C@H](C)C[C@H](O[C@H]4C[C@H](Oc5cc(N6C7CCC6CN(c6cc(-c8ccccc8O)nnc6N)C7)ccn5)C4)C[C@@H]3C)no2)C(C)C)cn1` (stereo partly drawn) [compound 448, (2S,4R)-1-(2-(3-(2-((2S,4S,6R)-4-((1r,3R)-3-((4-(3-(3-amino-6-(2-hydroxyphenyl)pyridazin-4-yl)-3,8-diazabicyclo[3.2.1]octan-8-yl)pyridin-2-yl)oxy)cyclobutoxy)-2,6-dimethylpiperidin-1-yl)ethoxy)isoxazol-5-yl)-3-methylbutanoyl)-4-hydroxy-N-((S)-1-(6-(4-methylthiazol-5-yl)pyridin-3-yl)ethyl)pyrrolidine-2-carboxamide], for which the Dmax was greater than 75%. Further, where the note is “target protein degradation”, the DC50 is less than 2.5 nM.
Taken in the same sequence, the figures for `Cc1ncsc1-c1ccc([C@H](C)NC(=O)[C@@H]2C[C@@H](O)CN2C(=O)[C@H](c2cc(OCCC3CCN(C(=O)[C@H]4C[C@@H](CN5CCC([C@H](C)n6cc(-c7cc(-c8ccccc8O)nnc7N)cn6)CC5)C4)CC3)no2)C(C)C)cc1` [compound 449, (2S,4R)-1-((S)-2-(3-(2-(1-((1R,3R)-3-((4-((S)-1-(4-(3-amino-6-(2-hydroxyphenyl)pyridazin-4-yl)-1H-pyrazol-1-yl)ethyl)piperidin-1-yl)methyl)cyclobutane-1-carbonyl)piperidin-4-yl)ethoxy)isoxazol-5-yl)-3-methylbutanoyl)-4-hydroxy-N-((S)-1-(4-(4-methylthiazol-5-yl)phenyl)ethyl)pyrrolidine-2-carboxamide] were greater than 75% and less than 2.5 nM.
Taken in the same sequence, the figures for `Cc1ncsc1-c1ccc([C@H](C)NC(=O)[C@@H]2C[C@@H](O)CN2C(=O)[C@@H](c2cc(OCCC3CCN(C(=O)[C@H]4C[C@@H](CN5CCC([C@H](C)n6cc(-c7cc(-c8ccccc8O)nnc7N)cn6)CC5)C4)CC3)no2)C(C)C)cc1` [compound 450, (2S,4R)-1-((R)-2-(3-(2-(1-((1R,3S)-3-((4-((S)-1-(4-(3-amino-6-(2-hydroxyphenyl)pyridazin-4-yl)-1H-pyrazol-1-yl)ethyl)piperidin-1-yl)methyl)cyclobutane-1-carbonyl)piperidin-4-yl)ethoxy)isoxazol-5-yl)-3-methylbutanoyl)-4-hydroxy-N-((S)-1-(4-(4-methylthiazol-5-yl)phenyl)ethyl)pyrrolidine-2-carboxamide] were greater than 75% and 10 to 30 nM.
Taken in the same sequence, the figures for `Cc1ncsc1-c1ccc([C@H](C)NC(=O)[C@@H]2C[C@@H](O)CN2C(=O)[C@H](c2cc(OCCC3CCN(C(=O)[C@H]4C[C@@H](CN5CCC([C@@H](C)n6cc(-c7cc(-c8ccccc8O)nnc7N)cn6)CC5)C4)CC3)no2)C(C)C)cc1` [compound 451, (2S,4R)-1-((S)-2-(3-(2-(1-((1S,3R)-3-((4-((R)-1-(4-(3-amino-6-(2-hydroxyphenyl)pyridazin-4-yl)-1 H-pyrazol-1-yl)ethyl)piperidin-1-yl)methyl)cyclobutane-1-carbonyl)piperidin-4-yl)ethoxy)isoxazol-5-yl)-3-methylbutanoyl)-4-hydroxy-N-((S)-1-(4-(4-methylthiazol-5-yl)phenyl)ethyl)pyrrolidine-2-carboxamide] were greater than 75% and less than 2.5 nM.
